Measurements reported in paper PMC8840689, “Bacillus cereus Toxin Repertoire: Diversity of (Iso)cereulide(s)” (Molecules, 2022).

Tests used:
[1] = tested on: HEp-2 cells; assay type: cell-based
Source text: (§1) Determination of EC50 of cereulide (1) and isocereulides H–N (2–8) via HEp-2 cell assay. The testing principle of the HEp-2 cell assay is based on the uncoupling of ATP synthesis, effectuated by supplemented ionophores, resulting in a facilitated ion influx into the mitochondria, thus disrupting the membrane potential. As a result, the 50% effective concentration (EC50) gives the amount of toxin required to inactivate half of the viable cells.
HEp-2 cell assay: The cytotoxic activity of 1–8 was determined by quantifying their EC50 using HEp-2 cells, as described previously. In a 96-well microtiter plate assay, a 2% ethanolic minimum essential medium (MEM-Earle’s), containing 2% FCS, 1% sodium pyruvate and 0.4% penicillin-streptomycin (v/v each), was provided to perform stepwise dilution of each toxin solution. As an overall toxicity reference and cell control, the structurally related toxin valinomycin was used analogously, in a range of approx. 2–500 ng/mL. The composition of each toxin sample is listed in the Supplementary Materials, Table S2. The HEp-2 cells were freed from their medium and washed with 5 mL of PBS twice and 5 mL of 0.05% Trypsin/EDTA solution was added. After incubation (8 min, 37 °C, 5% CO2), 10 mL of MEM was added and the cells were resuspended, transferred to a falcon tube and centrifuged (RT, 7 min, 700 rpm). The supernatant was discarded, the cell pellet was suspended in 5 mL of MEM and the cell count was determined via Trypan blue. Finally, the cell count was set to 6.7 × 10^5 cells/mL MEM (1 × 10^5 cells/well); a total of 150 µL of this solution was spiked to each well and the plate was incubated (48 h, 37 °C, 5% CO2). After removing 100 µL of the medium, 10 µL of the cell proliferation reagent WST (cell counting kit) was added and shaken for 1 min (400 rpm) and the plate was incubated (20 min, 37 °C, 5% CO2). To determine cell viability, the extinction at 450 nm/620 nm (TECAN infinite F200) was measured. The respective EC50 values for each sample were then calculated from the obtained dose-response curves and the corresponding applied sample dilution and concentration.
An aliquot of 2 µL of the respective samples with ^13C6-cereulide as an internal standard (100 ng/mL) was applied for the quantitation of 1–8 in the samples, later applied in the HEp-2 cell assay according to the literature, performed on a Waters Xevo TQ-S mass spectrometer (Waters) coupled to an Acquity UPLC i-class core system (Waters) with a binary solvent manager, sample manager and column oven. The system was operated with MassLynx 4.1 SCN 813 Software (Waters) and data processing and analysis were performed with TargetLynx (Waters). The recently reported quantitation method for cereulide and isocereulides A-G [33] was extended by implementing the ammonium adducts of 2–8 using the multiple reaction monitoring mode with the following parameters. Compounds 2, 3 and 7 m/z 1156.6 → qualifier m/z 172.2, 314.2; quantifier m/z 357.2. Compound 4 m/z 1142.6 → qualifier m/z 172.2, 314.2; quantifier m/z 357.2. Compound 5 m/z 1184.6 → qualifier m/z 172.2, 314.2; quantifier m/z 357.2. Compounds 6 and 8 m/z 1186.6 → qualifier m/z 172.2, 314.2; quantifier m/z 357.2. The calibration for the quantitation of the analytes consisted of mixtures of cereulide (0.1–1000 ng/mL in EtOH) and ^13C6-cereulide (100 ng/mL) as an internal standard. Mixtures were prepared from stock solutions and analyzed in triplicate by UPLC-MS/MS. The calibration curve was obtained by plotting the peak area ratios of analytes to internal standard against the concentration ratios of analyte to internal standard for each solution and applying linear regression (origin excluded) to give the equation y=2.5174x+0.0061 with R^2=0.9998 . For 1 and ^13C6-cereulide, the quantifier mass transitions were selected as m/z 1170.7 → m/z 357.2 and m/z 1176.7 → m/z 358.2, respectively. All mass spectrometric and chromatographic parameters were used as reported.

[2] = UPLC retention on RP-BEH-C18 column (analyte hydrophobicity); assay type: physicochemical; details: for RT (retention time on RP-BEH-C18 UPLC column): chromatographic, BEH-C18 2.1 × 150 mm, 1.7 µm, 0.4 mL/min, 45 °C, A aqueous HCOOH (0.1%), B MeCN with HCOOH (0.1%), 93% B to 100% B in 4 min, ESI-TOF-MS, uncalibrated, link to hydrophobicity only implicit
Method: Purification of cereulide (1) and isocereulides H–N (2–8): The purification of 1–8 from the reduced ethanol extract was performed according to the literature. In brief, the extract was diluted with H2O (1:10) for better retention of the target analytes on the column material and pre-fractionated via C18 SPE cartridges (60 mL, 10 g; Chromabond, Macherey-Nagel, Düren, Germany). All obtained methanolic fractions were combined and the solvent was reduced to approx. 150 mL using a rotary evaporator and stored at −20 °C until further use for compound isolation. The sample material was separated via semi-preparative HPLC into 10 fractions (Supplementary Materials, Figure S1), for which the respective eluates were combined and their solvents removed through a rotary evaporator. The obtained HPLC fractions were screened for cereulide (1) and its isocereulides using a UPLC-TOF-MS system Synapt G2-S (Waters, Manchester, UK) in the positive electrospray mode equipped with a 2.1 × 150 mm, 1.7 µm BEH-C18 column (Waters, Manchester, UK) at a flow rate of 0.4 mL/min at 45 °C using aqueous HCOOH (0.1%) as solvent A and MeCN with HCOOH (0.1%) as solvent B. Elution was performed by starting at 93% B, increasing to 100% B in 4 min, holding at 100% B for 2 min, followed by decreasing to 93% in 0.1 min and holding at 93% B for 0.9 min.

[3] = tested on: HEp-2 cells; details: cited from earlier work
Source text: At this point, we can only speculate about the magnitude of the impact that isocereulides have on the overall toxicity of (iso)cereulide-containing B. cereus cell cultures.

[4] = tested on: 5–HT3 receptors; details: lower concentrations; stimulation of the vagus afferent by binding to 5–HT3 receptors in the duodenum; cited from earlier work
Source text: (§2) Similar to the antibiotic valinomycin, cereulide unfolds its toxicity potential due to a high affinity for complex formation with alkali metal ions (Li^+, Na^+ and K^+) and ammonium ions, resulting in its biological function as a strong K^+ ionophore and as a K^+ transporter, resulting in cell membrane depolarization.

[5] = tested on: blood–brain barrier; details: porcine model; cited from earlier work
Source text: as §2

[6] = cited from earlier work
Source text: as §1

[7] = cited from earlier work; remark: listed apart in the source
Source text: . Cereulide (1) is composed of 12 alternatingly placed α-amino and α-hydroxy acids thought to form the three-time circularly repeating tetradepsipeptide unit D-O-Leu-D-Ala-L-O-Val-L-Val (Figure 1), leading to its characteristic dodecadepsipeptide structure in a rectangular cylindrical shape. Because of its uniqu ...

Compound | RT (retention time on RP-BEH-C18 UPLC column) [2] [min] | other results
isocereulide K | 4.59 | cytotoxicity compared to 1 ([1]; HEp-2 cells, 48 h): 69%; hydrophobicity compared with 1 (in words) [2]: more hydrophobic than 1
CC[C@@H]1NC(=O)[C@H](C(C)C)OC(=O)[C@@H](C)NC(=O)[C@@H](CC(C)C)OC(=O)[C@H](C(C)C)NC(=O)[C@H](C(C)C)OC(=O)[C@@H](C)NC(=O)[C@@H](CC(C)C)OC(=O)[C@H](C(C)C)NC(=O)[C@H](C(C)C)OC(=O)[C@@H](C)NC(=O)[C@@H](CC(C)C)OC1=O [Isocereulide I, isocereulide I] | 3.40 | absolute EC50 ([1]; 48 h): 1.75 ng/mL; toxicity relative to cereulide (1) (reciprocal EC50, cereulide set to 1) ([1]; HEp-2 cells, 48 h): 1.4 fold; hydrophobicity compared with 1 (in words) [2]: slightly more hdrophilic
isocereulide L | 2.76 | 
isocereulide B | 3.83 | 
isocereulide D | 2.88 | 
isocereulide F | 5.00 | 
isocereulide C | 2.52 | 
D-O-Leu-D-Ala-L-O-Val-L-Val-D-O-Leu-Gly-L-O-Val-L-Val-D-O-Ile-D-Ala-L-O-Val-L-Val (lariat or depsi) [Isocereulide M, isocereulide M, cereulide variant, D-Ala by Gly and D-O-Leu by D-O-Ile] | 3.07 | 
isocereulide G | 4.56 | 
CC(C)C[C@H]1OC(=O)[C@H](C(C)C)NC(=O)[C@H](C(C)C)OC(=O)CNC(=O)[C@@H](CC(C)C)OC(=O)[C@H](C(C)C)NC(=O)[C@H](C(C)C)OC(=O)[C@@H](C)NC(=O)[C@@H](CC(C)C)OC(=O)[C@H](C(C)C)NC(=O)[C@H](C(C)C)OC(=O)[C@@H](C)NC1=O [Isocereulide H, isocereulide H] | 2.88 | absolute EC50 ([1]; 48 h): 6.62 ng/mL; decreased toxicity effect on HEp-2 cells compared to 1 ([1]; HEp-2 cells, 48 h): 63%
isocereulide E | 3.83 | 
isocereulide N | 2.76 | 
isocereulide J | 3.57 | 
isocereulide A | 4.83 | higher toxicity than cereulide [3]: approximately 8 fold
CC(C)C[C@H]1OC(=O)[C@H](C(C)C)NC(=O)[C@H](C(C)C)OC(=O)[C@@H](C)NC(=O)[C@@H](CC(C)C)OC(=O)[C@H](C(C)C)NC(=O)[C@H](C(C)C)OC(=O)[C@@H](C)NC(=O)[C@@H](CC(C)C)OC(=O)[C@H](C(C)C)NC(=O)[C@H](C(C)C)OC(=O)[C@@H](C)NC1=O [Cereulide, cereulide] | 4.25 | absolute EC50 ([1]; 48 h): 2.44 ng/mL; toxic effect relative to valinomycin at an equally applied concentration ([1]; HEp-2 cells, from EC50 values, data not shown): 13.7 times; emetic effect [4]: provoke vomiting; crossing of the blood–brain barrier [5]: can cross the blood–brain barrier; increased toxicity compared to valinomycin [6]: approx. 15 fold; stability to temperatures, pH values and enzymes [7]: inert to a wide range of temperatures, pH values and enzymes
